pIC50: −log10 of the molar value. Active and inactive are the calls of the source. The calls are words filed in the database; no cut-off is given here.
How the values were obtained:
[1] = Cytotoxicity against human AC16 cells assessed as change in intracellular calcium level at 20 uM measured after 24 hrs by Fluo-4 AM based flow cytometry; assay type: toxicity, cell-based; conditions: ac16 [human hybrid]
THP-1 [2] = assay: In vivo antitumor activity against human THP-1 cells xenografted in female NOD SCID mouse assessed as tumor growth inhibition at 40 mg/kg, ip once daily after 10 days of tumor inoculation treated for 14 days relative to control; assay type: functional; conditions: THP-1, 336 h, time 14 day, read-out: TGI
[3] = molecular target: Voltage-gated inwardly rectifying potassium channel KCNH2 (Homo sapiens, UniProt Q12809); assay: Inhibition of hERG; assay type: toxicity
Sequence of Voltage-gated inwardly rectifying potassium channel KCNH2 (Q12809 whole entry): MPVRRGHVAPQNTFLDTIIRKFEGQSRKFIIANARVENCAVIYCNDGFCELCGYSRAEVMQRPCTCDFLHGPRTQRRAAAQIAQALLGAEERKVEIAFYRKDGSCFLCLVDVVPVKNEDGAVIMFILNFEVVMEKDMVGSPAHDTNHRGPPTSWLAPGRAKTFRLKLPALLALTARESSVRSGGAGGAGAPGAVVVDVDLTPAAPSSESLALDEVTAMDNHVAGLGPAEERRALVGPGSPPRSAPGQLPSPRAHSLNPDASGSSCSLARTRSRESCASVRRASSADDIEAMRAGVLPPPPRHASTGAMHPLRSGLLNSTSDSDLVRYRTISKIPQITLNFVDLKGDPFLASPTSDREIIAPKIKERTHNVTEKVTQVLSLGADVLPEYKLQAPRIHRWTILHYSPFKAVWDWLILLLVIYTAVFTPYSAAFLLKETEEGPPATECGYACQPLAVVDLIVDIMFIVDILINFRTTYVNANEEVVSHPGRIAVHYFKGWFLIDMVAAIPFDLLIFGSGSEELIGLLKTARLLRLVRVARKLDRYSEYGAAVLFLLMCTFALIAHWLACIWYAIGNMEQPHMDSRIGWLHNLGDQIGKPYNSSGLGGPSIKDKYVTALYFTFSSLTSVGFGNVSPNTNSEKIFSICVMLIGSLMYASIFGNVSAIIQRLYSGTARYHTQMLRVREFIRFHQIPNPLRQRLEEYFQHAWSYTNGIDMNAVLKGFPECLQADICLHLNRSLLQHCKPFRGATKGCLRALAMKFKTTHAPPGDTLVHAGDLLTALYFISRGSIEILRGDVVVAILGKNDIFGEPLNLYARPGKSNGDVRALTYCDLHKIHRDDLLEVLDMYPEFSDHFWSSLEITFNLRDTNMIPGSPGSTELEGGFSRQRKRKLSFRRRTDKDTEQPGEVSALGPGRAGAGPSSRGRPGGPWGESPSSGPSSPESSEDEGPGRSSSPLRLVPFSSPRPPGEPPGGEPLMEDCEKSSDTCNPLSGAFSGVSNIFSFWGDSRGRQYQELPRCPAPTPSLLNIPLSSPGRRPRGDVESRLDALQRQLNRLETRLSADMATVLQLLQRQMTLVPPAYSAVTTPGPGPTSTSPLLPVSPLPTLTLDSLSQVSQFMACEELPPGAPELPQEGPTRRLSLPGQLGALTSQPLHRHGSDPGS

[4] = Tmax in Sprague-Dawley rat at 5 mg/kg, iv measured upto 24 hrs by LC-MS/MS analysis; assay type: ADME, organism-based; conditions: in vivo
[5] = Toxicity in NOD SCID mouse xenografted with human HL-60 cells assessed as change in kidney tissue at 80 mg/kg, ip once daily after 15 days of tumor inoculation treated for 12 days; assay type: organism-based; conditions: in vivo
[6] = Toxicity in NOD SCID mouse xenografted with human THP-1 cells assessed as change in kidney tissue at 40 to 80 mg/kg, ip once daily after 10 days of tumor inoculation treated for 14 days relative to control; assay type: organism-based; conditions: in vivo, 336 h, dose 40-80 mg/kg, time 14 day
[7] = Toxicity in NOD SCID mouse xenografted with human THP-1 cells assessed as change in heart tissue at 40 to 80 mg/kg, ip once daily after 10 days of tumor inoculation treated for 14 days relative to control; assay type: organism-based; conditions: in vivo, 336 h, dose 40-80 mg/kg, time 14 day
THP-1 [8] = assay: Induction of apoptosis in Noxa knockdown human THP-1 cells assessed as PARP cleavage at 20 uM measured after 24 hrs by […]; assay type: functional, cell-based
HL-60 [9] = assay: Induction of apoptosis in human HL-60 cells assessed as increase in Noxa measured after 24 hrs by Western blot analysis; assay type: functional, cell-based; conditions: dose 10-20 µM
[10] = MRT (0 to t) in Sprague-Dawley rat at 20 mg/kg, ip measured upto 24 hrs by LC-MS/MS analysis; assay type: ADME, organism-based; conditions: in vivo
[11] = AUC (0 to infinity) in Sprague-Dawley rat at 20 mg/kg, ip measured upto 24 hrs by LC-MS/MS analysis; assay type: ADME, organism-based; conditions: in vivo
[12] = Toxicity in NOD SCID mouse assessed as change in heart tissue at 25 mg/kg, ip administered for 7 consecutive days by Hematoxylin-eosin (HE) staining based assay; assay type: organism-based; conditions: in vivo, 168 h, time 7 day
[13] = MRT (0 to infinity) in Sprague-Dawley rat at 5 mg/kg, iv measured upto 24 hrs by LC-MS/MS analysis; assay type: ADME, organism-based; conditions: in vivo
[14] = Toxicity in NOD SCID mouse xenografted with human HL-60 cells assessed as change in liver tissue at 80 mg/kg, ip once daily after 15 days of tumor inoculation treated for 12 days; assay type: organism-based; conditions: in vivo, 288 h, time 12 day
THP-1 [15] = assay: Induction of apoptosis in human THP-1 cells assessed as increase in Noxa measured after 24 hrs by Western blot analysis; assay type: functional, cell-based; conditions: dose 10-20 µM
[16] = Toxicity in NOD SCID mouse xenografted with human THP-1 cells assessed as change in body weight at 40 to 80 mg/kg, ip once daily after 10 days of tumor inoculation treated for 14 days relative to control; assay type: organism-based; conditions: in vivo, 336 h, dose 40-80 mg/kg, time 14 day
[17] = Toxicity in NOD SCID mouse assessed as change in spleen tissue at 25 mg/kg, ip administered for 7 consecutive days by Hematoxylin-eosin (HE) staining based assay; assay type: organism-based; conditions: in vivo, 168 h, time 7 day
[18] = Toxicity in NOD SCID mouse xenografted with human HL-60 cells assessed as change in body weight at 80 mg/kg, ip once daily after 15 days of tumor inoculation treated for 12 days; assay type: organism-based; conditions: in vivo, 288 h, time 12 day
HL-60 [19] = assay: In vivo antitumor activity against human HL-60 cells xenografted in female NOD SCID mouse assessed as reduction in tumor volume at 80 mg/kg, ip once daily after 15 days of tumor inoculation treated for 12 days; assay type: functional, organism-based; conditions: time 12.0 day
[20] = molecular target: Apoptosis regulator Bcl-2 (Homo sapiens, UniProt P10415); assay: Binding affinity to Bcl-2 in human THP-1 cells assessed as dissociation of Bim from Bcl-2 at 20 uM measured after 24 hrs by Co-immunoprecipitation (Co-IP) assay; assay type: cell-based
Sequence of Apoptosis regulator Bcl-2 (P10415 whole entry): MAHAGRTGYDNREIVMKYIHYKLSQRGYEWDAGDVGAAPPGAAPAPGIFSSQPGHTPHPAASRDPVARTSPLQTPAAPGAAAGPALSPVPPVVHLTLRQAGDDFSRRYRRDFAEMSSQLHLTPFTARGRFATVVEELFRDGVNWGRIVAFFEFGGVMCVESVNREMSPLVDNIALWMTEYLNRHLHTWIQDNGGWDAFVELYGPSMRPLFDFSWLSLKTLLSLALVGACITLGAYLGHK

[21] = Bioavailability in Sprague-Dawley rat at 20 mg/kg, ip measured upto 24 hrs by LC-MS/MS analysis; assay type: ADME, organism-based; conditions: in vivo
[22] = AUC (0 to infinity) in Sprague-Dawley rat at 5 mg/kg, iv measured upto 24 hrs by LC-MS/MS analysis; assay type: ADME, organism-based; conditions: in vivo
[23] = Toxicity in NOD SCID mouse xenografted with human THP-1 cells assessed as change in liver tissue at 40 to 80 mg/kg, ip once daily after 10 days of tumor inoculation treated for 14 days relative to control; assay type: organism-based; conditions: in vivo, 336 h, dose 40-80 mg/kg, time 14 day
[24] = Cmax in Sprague-Dawley rat at 5 mg/kg, iv measured upto 24 hrs by LC-MS/MS analysis; assay type: ADME, organism-based; conditions: in vivo

Tmax [4]: 4.98 min
MRT last at 24 h [10]: 6.51 h
AUC(0-inf) [11]: 55800 ng·h/mL
MRT inf [13]: 1.3 h
Activity [20]: inactive
bioavailability [21]: 74%
AUC(0-inf) [22]: 18800 ng·h/mL
Cmax [24]: 46500 ng/mL
Compound: Cc1cc(OCCCc2c(C(=O)O)n(CCN3CCOCC3)c3c(-c4ccccc4Cn4cc(CCN(CCN5CCOCC5)S(=O)(=O)c5ccc(F)cc5)c5ccccc54)cccc23)cc(C)c1Cl
Activity [1]: Non-Toxic
inhibition in vivo at 40 mg/kg (THP-1 [2]): 40.2%
pIC50 [3]: < 4.30
Activity [5]: Non-Toxic
Activity [6]: Non-Toxic
Activity [7]: Non-Toxic
Activity (THP-1 [8]): inactive
Activity (HL-60 [9]): Dose-Dependent Effect
Activity [12]: Non-Toxic
Activity [14]: Non-Toxic
Activity (THP-1 [15]): Dose-Dependent Effect
Activity [16]: Non-Toxic
Activity [17]: Non-Toxic
Activity [18]: Non-Toxic
Activity (HL-60 [19]): Active
Activity [23]: Non-Toxic

From ChEMBL document CHEMBL5584309, “Discovery of Novel Mcl-1 Inhibitors with a 3-Substituted-1H-indole-1-yl Moiety Binding to the P1-P3 Pockets to Induce Apoptosis in Acute Myeloid Leukemia Cells” (J Med Chem, 2024)
